Data from the supplement of paper PMC10307832.

Experiments:
Test in all cases: relative viability (nuclei count vs DMSO), 5 days (fraction); higher = more cells survive
Motesanib + Vorinostat = compound: CC1(C)CNc2cc(NC(=O)c3cccnc3NCc3ccncc3)ccc21 [Motesanib] + O=C(CCCCCCC(=O)Nc1ccccc1)NO [Vorinostat] (partner 1 µM)
Summary of the method: (§1)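 Five library-drug doses in √10 steps were combined with a fixed anchor-drug dose, or a single drug was given alone, by pin tool to lung cancer cell lines in 1536-well plates the day after seeding. Nuclei were stained and counted after 5 days. Relative viability is the nuclei count in treated wells over that in vehicle wells, taken as the median of duplicate plates.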

[1] = compound: C[C@@]1(C(=O)Nc2ccc(F)nc2)CCCN1c1nc(Nc2cc(C3CC3)n[nH]2)c2cccn2n1 + CCNC(=O)c1noc(-c2cc(C(C)C)c(O)cc2O)c1-c1ccc(CN2CCOCC2)cc1 [Luminespib] (partner 0.01 µM)
Summary of the method: as §1

[2] = compound: C[C@@]1(C(=O)Nc2ccc(F)nc2)CCCN1c1nc(Nc2cc(C3CC3)n[nH]2)c2cccn2n1 + Cc1cc(Nc2cc(N3CCN(C)CC3)nc(Sc3ccc(NC(=O)C4CC4)cc3)n2)n[nH]1 [Tozasertib] (partner 0.1 µM)
Summary of the method: as §1

[3] = compound: C[C@@]1(C(=O)Nc2ccc(F)nc2)CCCN1c1nc(Nc2cc(C3CC3)n[nH]2)c2cccn2n1 + O=C(c1cc(Cc2n[nH]c(=O)c3ccccc23)ccc1F)N1CCN(C(=O)C2CC2)CC1 [Olaparib] (partner 8 µM)
Summary of the method: as §1

Cell Line	relative viability (Motesanib + Vorinostat; first compound 0.01 µM)	relative viability (Motesanib + Vorinostat; first compound 0.03162 µM)	relative viability (Motesanib + Vorinostat; first compound 0.1 µM)	relative viability (Motesanib + Vorinostat; first compound 0.3162 µM)	relative viability (Motesanib + Vorinostat; first compound 1 µM)	relative viability ([1]; first compound 0.04 µM)	relative viability ([1]; first compound 0.1265 µM)	relative viability ([1]; first compound 0.4 µM)	relative viability ([1]; first compound 1.265 µM)	relative viability ([2]; first compound 0.04 µM)	relative viability ([2]; first compound 0.1265 µM)	relative viability ([2]; first compound 0.4 µM)	relative viability ([2]; first compound 1.265 µM)	relative viability ([3]; first compound 0.04 µM)	relative viability ([3]; first compound 0.1265 µM)	relative viability ([3]; first compound 0.4 µM)	relative viability ([3]; first compound 1.265 µM)
NCI-H3122	0.962	1.05	1.08	1.12	1	0.0763	0.0863	0.0793	0.0682	0.373	0.541	0.219	0.306	0.633	0.571	0.581	0.723
HCC-827	0.759	0.945	0.881	0.666	0.885	0.747	0.388	0.529	1	0.443	0.491	0.373	0.42	0.663	0.769	0.55	0.716
SK-LU-1	0.792	0.745	0.839	0.743	0.813	0.208	0.191	0.184	0.172	0.282	0.318	0.233	0.259	0.414	0.361	0.396	0.403
NCI-H1975	0.738	0.616	0.707	0.739	0.652	0.272	0.117	0.128	0.187	0.682	0.646	0.513	0.316	0.653	0.749	0.626	0.476
NCI-H1651	0.475	0.605	0.575	0.583	0.581	0.916	0.715	0.768	0.71	0.639	0.633	0.449	0.537	0.2	0.183	0.196	0.201
NCI-H441	0.527	0.697	0.7	0.764	0.792	0.258	0.175	0.221	0.267	0.496	0.403	0.349	0.369	0.373	0.368	0.345	0.332
LCLC-103H	0.756	0.843	0.815	1.02	0.762	0.92	0.766	0.733	0.927	0.474	0.472	0.394	0.473	0.716	0.655	0.518	0.762
LCLC-97TM1	0.796	0.884	0.495	0.858	0.575	0.342	0.272	0.23	0.378	0.122	0.103	0.0881	0.126	0.142	0.133	0.1	0.229
